Measurements reported in ChEMBL document CHEMBL4507279, “Data for DCP probe BI-9627” (2021).

Key:
[1] = test system: Tyrosine-protein kinase ABL1 (Homo sapiens), P00519 [F317L]; settings: Compound concentration 1000.0 nM
[2] = biological target: Activin receptor type-1-like (Homo sapiens) (UniProt P37023); settings: Compound concentration 1000.0 nM
[3] = biological target: 5'-AMP-activated protein kinase catalytic subunit alpha-1 (Homo sapiens) (UniProt Q13131); settings: Compound concentration 1000.0 nM
[4] = biological target: 5'-AMP-activated protein kinase catalytic subunit alpha-2 (Homo sapiens) (UniProt P54646); settings: Compound concentration 1000.0 nM
[5] = biological target: Peripheral plasma membrane protein CASK (Homo sapiens) (UniProt O14936); settings: Compound concentration 1000.0 nM
[6] = biological target: Cyclin-dependent kinase 9 (Homo sapiens) (UniProt P50750); settings: Compound concentration 1000.0 nM
[7] = biological target: Citron Rho-interacting kinase (Homo sapiens) (UniProt O14578); settings: Compound concentration 1000.0 nM
[8] = biological target: Casein kinase I isoform epsilon (Homo sapiens) (UniProt P49674); settings: Compound concentration 1000.0 nM
[9] = biological target: Serine/threonine-protein kinase 17B (Homo sapiens) (UniProt O94768); settings: Compound concentration 1000.0 nM
[10] = test system: Epidermal growth factor receptor (Homo sapiens), P00533 [G719C]; settings: Compound concentration 1000.0 nM
[11] = biological target: Ephrin type-A receptor 4 (Homo sapiens) (UniProt P54764); settings: Compound concentration 1000.0 nM
[12] = biological target: Fibroblast growth factor receptor 1 (Homo sapiens) (UniProt P11362); settings: Compound concentration 1000.0 nM
[13] = biological target: Glycogen synthase kinase-3 alpha (Homo sapiens) (UniProt P49840); settings: Compound concentration 1000.0 nM
[14] = biological target: Tyrosine-protein kinase HCK (Homo sapiens) (UniProt P08631); settings: Compound concentration 1000.0 nM
[15] = test system: Mast/stem cell growth factor receptor Kit (Homo sapiens), P10721 [D816V]; settings: Compound concentration 1000.0 nM
[16] = test system: Leucine-rich repeat serine/threonine-protein kinase 2 (Homo sapiens), Q5S007 [G2019S]; settings: Compound concentration 1000.0 nM
[17] = biological target: Mitogen-activated protein kinase kinase kinase kinase 2 (Homo sapiens) (UniProt Q12851); settings: Compound concentration 1000.0 nM
[18] = biological target: Mitogen-activated protein kinase kinase kinase kinase 3 (Homo sapiens) (UniProt Q8IVH8); settings: Compound concentration 1000.0 nM
[19] = biological target: MAP/microtubule affinity-regulating kinase 4 (Homo sapiens) (UniProt Q96L34); settings: Compound concentration 1000.0 nM
[20] = biological target: Dual specificity mitogen-activated protein kinase kinase 6 (Homo sapiens) (UniProt P52564); settings: Compound concentration 1000.0 nM
[21] = test system: Hepatocyte growth factor receptor (Homo sapiens), P08581 [M1250T]; settings: Compound concentration 1000.0 nM
[22] = biological target: Mitogen-activated protein kinase kinase kinase 10 (Homo sapiens) (UniProt Q02779); settings: Compound concentration 1000.0 nM
[23] = biological target: Mitogen-activated protein kinase kinase kinase 11 (Homo sapiens) (UniProt Q16584); settings: Compound concentration 1000.0 nM
[24] = biological target: Serine/threonine-protein kinase 3 (Homo sapiens) (UniProt Q13188); settings: Compound concentration 1000.0 nM
[25] = biological target: Myosin light chain kinase 2, skeletal/cardiac muscle (Homo sapiens) (UniProt Q9H1R3); settings: Compound concentration 1000.0 nM
[26] = biological target: Myosin light chain kinase family member 4 (Homo sapiens) (UniProt Q86YV6); settings: Compound concentration 1000.0 nM
[27] = biological target: Cyclin-dependent kinase 15 (Homo sapiens) (UniProt Q96Q40); settings: Compound concentration 1000.0 nM
[28] = biological target: Cyclin-dependent kinase 14 (Homo sapiens) (UniProt O94921); settings: Compound concentration 1000.0 nM
[29] = test system: Phosphatidylinositol 4,5-bisphosphate 3-kinase catalytic subunit alpha isoform (Homo sapiens), P42336 [E542K]; settings: Compound concentration 1000.0 nM
[30] = test system: Phosphatidylinositol 4,5-bisphosphate 3-kinase catalytic subunit alpha isoform (Homo sapiens), P42336 [I800L]; settings: Compound concentration 1000.0 nM
[31] = biological target: Phosphatidylinositol 4-phosphate 5-kinase type-1 alpha (Homo sapiens) (UniProt Q99755); settings: Compound concentration 1000.0 nM
[32] = biological target: cAMP-dependent protein kinase catalytic subunit alpha (Homo sapiens) (UniProt P17612); settings: Compound concentration 1000.0 nM
[33] = biological target: cAMP-dependent protein kinase catalytic subunit beta (Homo sapiens) (UniProt P22694); settings: Compound concentration 1000.0 nM
[34] = biological target: Protein kinase C eta type (Homo sapiens) (UniProt P24723); settings: Compound concentration 1000.0 nM
[35] = biological target: Serine/threonine-protein kinase SIK3 (Homo sapiens) (UniProt Q9Y2K2); settings: Compound concentration 1000.0 nM
[36] = test system: Proto-oncogene tyrosine-protein kinase receptor Ret (Homo sapiens), P07949 [V804L]; settings: Compound concentration 1000.0 nM
[37] = biological target: Serine/threonine-protein kinase RIO3 (Homo sapiens) (UniProt O14730); settings: Compound concentration 1000.0 nM
[38] = biological target: Serine/threonine-protein kinase Sgk1 (Homo sapiens) (UniProt O00141); settings: Compound concentration 1000.0 nM
[39] = biological target: Serine/threonine-protein kinase Sgk2 (Homo sapiens) (UniProt Q9HBY8); settings: Compound concentration 1000.0 nM
[40] = biological target: Tyrosine-protein kinase Srms (Homo sapiens) (UniProt Q9H3Y6); settings: Compound concentration 1000.0 nM
[41] = biological target: Mitogen-activated protein kinase kinase kinase 7 (Homo sapiens) (UniProt O43318); settings: Compound concentration 1000.0 nM
[42] = biological target: TGF-beta receptor type-2 (Homo sapiens) (UniProt P37173); settings: Compound concentration 1000.0 nM
[43] = biological target: Dual specificity protein kinase TTK (Homo sapiens) (UniProt P33981); settings: Compound concentration 1000.0 nM
[44] = biological target: Serine/threonine-protein kinase WNK3 (Homo sapiens) (UniProt Q9BYP7); settings: Compound concentration 1000.0 nM
[45] = biological target: 5-hydroxytryptamine receptor 1B (Homo sapiens) (UniProt P28222); settings: Compound concentration 10.0 uM

Chain of Tyrosine-protein kinase Srms (Homo sapiens) (Q9H3Y6 whole entry): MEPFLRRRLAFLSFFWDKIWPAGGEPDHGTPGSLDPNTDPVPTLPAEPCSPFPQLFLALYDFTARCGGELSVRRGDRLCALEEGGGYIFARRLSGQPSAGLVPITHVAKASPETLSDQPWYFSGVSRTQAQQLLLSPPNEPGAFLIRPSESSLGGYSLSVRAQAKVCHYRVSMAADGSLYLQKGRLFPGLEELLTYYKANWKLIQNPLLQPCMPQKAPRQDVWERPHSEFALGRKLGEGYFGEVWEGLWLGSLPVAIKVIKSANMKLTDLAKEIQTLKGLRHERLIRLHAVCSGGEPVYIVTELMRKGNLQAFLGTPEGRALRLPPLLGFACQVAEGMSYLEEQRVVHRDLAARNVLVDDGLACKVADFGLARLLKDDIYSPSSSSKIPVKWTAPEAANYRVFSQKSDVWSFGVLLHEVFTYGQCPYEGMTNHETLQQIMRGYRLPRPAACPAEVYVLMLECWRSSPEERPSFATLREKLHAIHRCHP
Chain of Fibroblast growth factor receptor 1 (Homo sapiens) (P11362 22-822 limits assumed): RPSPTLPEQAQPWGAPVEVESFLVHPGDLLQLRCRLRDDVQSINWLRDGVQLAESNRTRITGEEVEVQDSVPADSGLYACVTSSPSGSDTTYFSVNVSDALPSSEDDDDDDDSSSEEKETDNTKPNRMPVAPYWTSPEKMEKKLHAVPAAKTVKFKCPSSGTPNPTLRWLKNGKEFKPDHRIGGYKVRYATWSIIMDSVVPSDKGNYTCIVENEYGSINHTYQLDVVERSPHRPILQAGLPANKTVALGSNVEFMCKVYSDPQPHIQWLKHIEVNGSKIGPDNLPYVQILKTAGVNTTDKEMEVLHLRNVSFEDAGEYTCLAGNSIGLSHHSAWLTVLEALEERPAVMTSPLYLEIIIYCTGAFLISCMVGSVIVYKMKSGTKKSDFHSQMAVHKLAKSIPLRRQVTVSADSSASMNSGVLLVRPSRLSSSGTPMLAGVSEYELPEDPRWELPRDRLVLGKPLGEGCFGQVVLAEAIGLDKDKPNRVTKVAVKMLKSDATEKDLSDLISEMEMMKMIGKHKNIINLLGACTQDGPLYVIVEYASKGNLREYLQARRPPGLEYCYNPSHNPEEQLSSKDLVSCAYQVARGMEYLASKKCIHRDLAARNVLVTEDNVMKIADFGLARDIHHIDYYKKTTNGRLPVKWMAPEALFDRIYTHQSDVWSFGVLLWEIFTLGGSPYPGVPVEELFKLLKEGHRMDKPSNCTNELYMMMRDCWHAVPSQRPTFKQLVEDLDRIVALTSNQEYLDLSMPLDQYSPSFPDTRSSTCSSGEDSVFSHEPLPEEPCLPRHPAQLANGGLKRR
Chain of Dual specificity mitogen-activated protein kinase kinase 6 (Homo sapiens) (P52564 whole entry): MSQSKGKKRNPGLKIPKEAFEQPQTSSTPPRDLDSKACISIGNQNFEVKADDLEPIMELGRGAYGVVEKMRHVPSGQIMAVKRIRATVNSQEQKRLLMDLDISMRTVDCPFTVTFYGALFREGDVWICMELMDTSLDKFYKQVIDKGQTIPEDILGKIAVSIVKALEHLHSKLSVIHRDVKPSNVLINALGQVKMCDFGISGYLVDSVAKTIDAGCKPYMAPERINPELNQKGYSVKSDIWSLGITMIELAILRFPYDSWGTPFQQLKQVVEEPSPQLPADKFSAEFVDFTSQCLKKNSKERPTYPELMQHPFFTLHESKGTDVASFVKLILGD
Chain of Mitogen-activated protein kinase kinase kinase kinase 3 (Homo sapiens) (Q8IVH8 whole entry): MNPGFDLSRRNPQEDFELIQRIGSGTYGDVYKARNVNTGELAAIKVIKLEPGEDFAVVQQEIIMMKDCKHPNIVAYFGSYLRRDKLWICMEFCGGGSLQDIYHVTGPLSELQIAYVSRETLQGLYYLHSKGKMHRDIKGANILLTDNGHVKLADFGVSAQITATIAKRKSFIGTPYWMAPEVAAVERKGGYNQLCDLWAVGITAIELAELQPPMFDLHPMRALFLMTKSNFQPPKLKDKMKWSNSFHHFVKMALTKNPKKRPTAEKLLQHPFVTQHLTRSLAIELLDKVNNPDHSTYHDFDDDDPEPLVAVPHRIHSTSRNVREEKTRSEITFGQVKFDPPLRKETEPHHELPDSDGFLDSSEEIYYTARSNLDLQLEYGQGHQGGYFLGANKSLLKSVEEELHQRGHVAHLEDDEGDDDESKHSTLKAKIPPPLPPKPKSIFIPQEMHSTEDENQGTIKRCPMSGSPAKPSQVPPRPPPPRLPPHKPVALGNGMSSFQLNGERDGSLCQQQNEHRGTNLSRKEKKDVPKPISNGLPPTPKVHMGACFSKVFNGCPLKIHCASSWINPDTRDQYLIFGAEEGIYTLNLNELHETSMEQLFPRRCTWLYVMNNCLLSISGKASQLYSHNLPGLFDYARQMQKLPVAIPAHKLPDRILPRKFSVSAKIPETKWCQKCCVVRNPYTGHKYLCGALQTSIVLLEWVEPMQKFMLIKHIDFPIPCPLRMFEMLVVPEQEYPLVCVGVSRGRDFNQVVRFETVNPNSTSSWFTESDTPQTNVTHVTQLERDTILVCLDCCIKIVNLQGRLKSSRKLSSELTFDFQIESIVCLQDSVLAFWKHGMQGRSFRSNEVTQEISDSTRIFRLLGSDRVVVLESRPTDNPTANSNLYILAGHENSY
Chain of TGF-beta receptor type-2 (Homo sapiens) (P37173 whole entry): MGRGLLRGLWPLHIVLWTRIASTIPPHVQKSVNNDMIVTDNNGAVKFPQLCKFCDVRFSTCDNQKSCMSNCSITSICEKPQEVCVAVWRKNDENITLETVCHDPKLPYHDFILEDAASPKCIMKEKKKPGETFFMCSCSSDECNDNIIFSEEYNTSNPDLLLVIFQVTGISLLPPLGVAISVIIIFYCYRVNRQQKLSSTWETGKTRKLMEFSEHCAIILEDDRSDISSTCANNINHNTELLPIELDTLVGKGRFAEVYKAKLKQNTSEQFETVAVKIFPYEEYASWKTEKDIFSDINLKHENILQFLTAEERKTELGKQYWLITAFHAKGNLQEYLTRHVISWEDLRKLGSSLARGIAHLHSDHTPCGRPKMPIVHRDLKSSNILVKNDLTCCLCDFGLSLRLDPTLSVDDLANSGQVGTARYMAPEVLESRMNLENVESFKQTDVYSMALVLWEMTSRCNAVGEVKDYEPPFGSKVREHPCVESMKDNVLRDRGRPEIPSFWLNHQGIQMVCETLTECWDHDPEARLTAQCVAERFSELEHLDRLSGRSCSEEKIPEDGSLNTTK
Chain of Serine/threonine-protein kinase RIO3 (Homo sapiens) (O14730 whole entry): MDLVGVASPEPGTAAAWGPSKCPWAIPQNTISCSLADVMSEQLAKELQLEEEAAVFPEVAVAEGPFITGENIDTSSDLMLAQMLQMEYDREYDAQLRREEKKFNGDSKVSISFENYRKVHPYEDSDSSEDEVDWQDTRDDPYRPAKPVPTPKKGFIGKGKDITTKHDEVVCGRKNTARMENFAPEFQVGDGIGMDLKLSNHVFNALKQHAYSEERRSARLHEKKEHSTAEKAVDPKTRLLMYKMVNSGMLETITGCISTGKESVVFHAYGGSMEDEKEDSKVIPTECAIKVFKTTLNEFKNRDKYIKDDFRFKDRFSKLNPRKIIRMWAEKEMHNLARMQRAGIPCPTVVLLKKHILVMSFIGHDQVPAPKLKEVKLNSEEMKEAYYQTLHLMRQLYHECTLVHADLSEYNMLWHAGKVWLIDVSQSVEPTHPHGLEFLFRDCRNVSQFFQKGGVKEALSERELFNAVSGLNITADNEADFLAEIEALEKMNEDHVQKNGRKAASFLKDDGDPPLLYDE
Chain of Mitogen-activated protein kinase kinase kinase 7 (Homo sapiens) (O43318 whole entry): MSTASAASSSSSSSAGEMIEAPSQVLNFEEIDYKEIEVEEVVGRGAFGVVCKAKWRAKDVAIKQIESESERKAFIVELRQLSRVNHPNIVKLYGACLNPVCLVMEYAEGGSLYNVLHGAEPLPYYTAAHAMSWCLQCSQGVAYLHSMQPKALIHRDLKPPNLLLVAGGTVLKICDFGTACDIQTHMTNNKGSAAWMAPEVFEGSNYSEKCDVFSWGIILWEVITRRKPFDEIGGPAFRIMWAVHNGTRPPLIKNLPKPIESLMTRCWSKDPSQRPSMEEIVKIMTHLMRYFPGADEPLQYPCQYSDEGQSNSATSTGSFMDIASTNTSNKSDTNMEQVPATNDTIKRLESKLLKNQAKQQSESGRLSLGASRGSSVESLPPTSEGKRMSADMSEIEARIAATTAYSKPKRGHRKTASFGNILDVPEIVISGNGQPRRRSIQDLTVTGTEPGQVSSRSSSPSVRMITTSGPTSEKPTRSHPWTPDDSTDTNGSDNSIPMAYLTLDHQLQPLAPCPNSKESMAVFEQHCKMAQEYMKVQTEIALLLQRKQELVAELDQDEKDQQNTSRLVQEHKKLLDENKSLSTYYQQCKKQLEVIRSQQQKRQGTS
Chain of Cyclin-dependent kinase 15 (Homo sapiens) (Q96Q40 whole entry): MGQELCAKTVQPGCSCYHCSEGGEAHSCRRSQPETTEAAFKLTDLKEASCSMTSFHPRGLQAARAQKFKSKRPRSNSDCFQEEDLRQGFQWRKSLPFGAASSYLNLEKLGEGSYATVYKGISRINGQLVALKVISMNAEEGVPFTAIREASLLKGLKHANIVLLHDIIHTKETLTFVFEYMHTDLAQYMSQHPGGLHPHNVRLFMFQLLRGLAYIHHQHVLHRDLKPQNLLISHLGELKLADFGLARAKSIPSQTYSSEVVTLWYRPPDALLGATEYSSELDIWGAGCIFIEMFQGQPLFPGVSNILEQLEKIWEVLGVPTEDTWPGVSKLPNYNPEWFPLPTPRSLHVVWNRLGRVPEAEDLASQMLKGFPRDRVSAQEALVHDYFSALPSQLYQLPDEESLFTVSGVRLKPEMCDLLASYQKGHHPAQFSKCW
Chain of Serine/threonine-protein kinase Sgk2 (Homo sapiens) (Q9HBY8 whole entry): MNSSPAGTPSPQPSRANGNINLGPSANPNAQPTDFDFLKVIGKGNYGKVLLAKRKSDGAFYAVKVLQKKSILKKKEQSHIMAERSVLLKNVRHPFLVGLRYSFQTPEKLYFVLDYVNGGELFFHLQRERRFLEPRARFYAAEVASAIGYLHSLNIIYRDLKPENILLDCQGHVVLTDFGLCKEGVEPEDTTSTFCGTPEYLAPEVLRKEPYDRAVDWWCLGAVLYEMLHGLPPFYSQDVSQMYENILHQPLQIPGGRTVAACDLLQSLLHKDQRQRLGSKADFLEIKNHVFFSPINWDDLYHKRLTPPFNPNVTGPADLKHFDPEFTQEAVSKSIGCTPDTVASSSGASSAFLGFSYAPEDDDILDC

CC(=O)N1CCC(c2ccc(C(=O)NC3=NCCN3)cc2C(F)(F)F)CC1 [BI 0054]
inactive: residual activity [1] 87% | residual activity [2] 100% | residual activity [3] 100% | residual activity [4] 100% | residual activity [5] 85% | residual activity [6] 84% | residual activity [7] 100% | residual activity [8] 100% | residual activity [9] 100% | residual activity [10] 100% | residual activity [11] 100% | residual activity [12] 100% | residual activity [13] 78% | residual activity [14] 100% | residual activity [15] 91% | residual activity [16] 100% | residual activity [17] 100% | residual activity [18] 95% | residual activity [19] 100% | residual activity [20] 100% | residual activity [21] 84% | residual activity [22] 100% | residual activity [23] 100% | residual activity [24] 100% | residual activity [25] 100% | residual activity [26] 100% | residual activity [27] 100% | residual activity [28] 100% | residual activity [29] 100% | residual activity [30] 94% | residual activity [31] 100% | residual activity [32] 100% | residual activity [33] 100% | residual activity [34] 100% | residual activity [35] 100% | residual activity [36] 100% | residual activity [37] 98% | residual activity [38] 100% | residual activity [39] 100% | residual activity [40] 89% | residual activity [41] 100% | residual activity [42] 100% | residual activity [43] 100% | residual activity [44] 86% | inhibition [45] 37.8%

CC(=O)N1CCC(c2ccc(C(=O)NC(=N)N)cc2C(F)(F)F)CC1 [BI 9627]
inactive: residual activity [1] 100% | residual activity [2] 100% | residual activity [3] 97% | residual activity [4] 100% | residual activity [5] 100% | residual activity [6] 100% | residual activity [7] 98% | residual activity [8] 100% | residual activity [9] 100% | residual activity [10] 100% | residual activity [11] 100% | residual activity [12] 100% | residual activity [13] 97% | residual activity [14] 100% | residual activity [15] 100% | residual activity [16] 100% | residual activity [17] 100% | residual activity [18] 100% | residual activity [19] 100% | residual activity [20] 100% | residual activity [21] 100% | residual activity [22] 95% | residual activity [23] 100% | residual activity [24] 100% | residual activity [25] 85% | residual activity [26] 100% | residual activity [27] 100% | residual activity [28] 100% | residual activity [29] 82% | residual activity [30] 90% | residual activity [31] 94% | residual activity [32] 100% | residual activity [33] 100% | residual activity [34] 100% | residual activity [35] 100% | residual activity [36] 97% | residual activity [37] 100% | residual activity [38] 100% | residual activity [39] 100% | residual activity [40] 80% | residual activity [41] 100% | residual activity [42] 100% | residual activity [43] 100% | residual activity [44] 84% | inhibition [45] 14.6%
